Numbers after ± are expanded uncertainties.
Experiments:
[1] = 101 kPa, Liquid
[2] = xn = mol fraction of the nth substance listed; settings: 101 kPa, Liquid

CCCCn1cc[n+](C)c1.F[P-](F)(F)(F)(F)F [1-butyl-3-methylimidazolium hexafluorophosphate]
mass density ([1]; 293.15 K): 1371.57 ± 2.6 kg/m3
mass density ([1]; 298.15 K): 1367.22 ± 2.6 kg/m3
mass density ([1]; 303.15 K): 1362.86 ± 2.5 kg/m3
mass density ([1]; 308.15 K): 1358.56 ± 2.5 kg/m3
mass density ([1]; 313.15 K): 1354.3 ± 2.5 kg/m3
mass density ([1]; 323.15 K): 1345.98 ± 2.5 kg/m3
mass density ([1]; 333.15 K): 1337.7 ± 2.4 kg/m3
mass density ([1]; 343.15 K): 1330.76 ± 2.4 kg/m3

CCCCn1cc[n+](C)c1.F[B-](F)(F)F [1-butyl-3-methylimidazolium tetrafluoroborate]
mass density ([1]; 293.15 K): 1195.71 ± 1.8 kg/m3
mass density ([1]; 298.15 K): 1192.07 ± 1.8 kg/m3
mass density ([1]; 303.15 K): 1188.37 ± 1.8 kg/m3
mass density ([1]; 308.15 K): 1184.72 ± 1.8 kg/m3
mass density ([1]; 313.15 K): 1181.43 ± 1.7 kg/m3
mass density ([1]; 323.15 K): 1174.49 ± 1.7 kg/m3
mass density ([1]; 333.15 K): 1166.89 ± 1.7 kg/m3
mass density ([1]; 343.15 K): 1159.97 ± 1.6 kg/m3

CCCCn1cc[n+](C)c1.F[B-](F)(F)F [1-butyl-3-methylimidazolium tetrafluoroborate] + CC#N
mass density ([2]; 293.15 K, x1 = 0.1): 913.54 ± 0.47 kg/m3
mass density ([2]; 293.15 K, x1 = 0.1997): 993.5 ± 0.29 kg/m3
mass density ([2]; 293.15 K, x1 = 0.3): 1047.76 ± 0.43 kg/m3
mass density ([2]; 293.15 K, x1 = 0.4005): 1086.95 ± 0.59 kg/m3
mass density ([2]; 293.15 K, x1 = 0.4995): 1116.42 ± 0.76 kg/m3
mass density ([2]; 293.15 K, x1 = 0.6015): 1138.87 ± 0.94 kg/m3
mass density ([2]; 293.15 K, x1 = 0.6998): 1156.73 ± 1.1 kg/m3
mass density ([2]; 293.15 K, x1 = 0.799): 1171.64 ± 1.3 kg/m3
mass density ([2]; 293.15 K, x1 = 0.9012): 1185.23 ± 1.6 kg/m3
mass density ([2]; 293.15 K, x1 = 1): 1195.71 ± 1.8 kg/m3
mass density ([2]; 298.15 K, x1 = 0.1): 908.78 ± 0.47 kg/m3
mass density ([2]; 298.15 K, x1 = 0.1997): 989.03 ± 0.3 kg/m3
mass density ([2]; 298.15 K, x1 = 0.3): 1043.55 ± 0.42 kg/m3
mass density ([2]; 298.15 K, x1 = 0.4005): 1082.89 ± 0.58 kg/m3
mass density ([2]; 298.15 K, x1 = 0.4995): 1112.51 ± 0.75 kg/m3
mass density ([2]; 298.15 K, x1 = 0.6015): 1135.03 ± 0.93 kg/m3
mass density ([2]; 298.15 K, x1 = 0.6998): 1152.98 ± 1.1 kg/m3
mass density ([2]; 298.15 K, x1 = 0.799): 1167.96 ± 1.3 kg/m3
mass density ([2]; 298.15 K, x1 = 0.9012): 1181.58 ± 1.5 kg/m3
mass density ([2]; 298.15 K, x1 = 1): 1192.07 ± 1.8 kg/m3
mass density ([2]; 303.15 K, x1 = 0.1): 903.94 ± 0.48 kg/m3
mass density ([2]; 303.15 K, x1 = 0.1997): 984.51 ± 0.31 kg/m3
mass density ([2]; 303.15 K, x1 = 0.3): 1039.25 ± 0.41 kg/m3
mass density ([2]; 303.15 K, x1 = 0.4005): 1078.74 ± 0.57 kg/m3
mass density ([2]; 303.15 K, x1 = 0.4995): 1108.44 ± 0.74 kg/m3
mass density ([2]; 303.15 K, x1 = 0.6015): 1131.08 ± 0.91 kg/m3
mass density ([2]; 303.15 K, x1 = 0.6998): 1149.11 ± 1.1 kg/m3
mass density ([2]; 303.15 K, x1 = 0.799): 1164.16 ± 1.3 kg/m3
mass density ([2]; 303.15 K, x1 = 0.9012): 1177.8 ± 1.5 kg/m3
mass density ([2]; 303.15 K, x1 = 1): 1188.37 ± 1.8 kg/m3
mass density ([2]; 308.15 K, x1 = 0.1): 899.1 ± 0.49 kg/m3
mass density ([2]; 308.15 K, x1 = 0.1997): 980.03 ± 0.32 kg/m3
mass density ([2]; 308.15 K, x1 = 0.3): 1034.99 ± 0.4 kg/m3
mass density ([2]; 308.15 K, x1 = 0.4005): 1074.62 ± 0.56 kg/m3
mass density ([2]; 308.15 K, x1 = 0.4995): 1104.46 ± 0.72 kg/m3
mass density ([2]; 308.15 K, x1 = 0.6015): 1127.17 ± 0.9 kg/m3
mass density ([2]; 308.15 K, x1 = 0.6998): 1145.29 ± 1.1 kg/m3
mass density ([2]; 308.15 K, x1 = 0.799): 1160.39 ± 1.3 kg/m3
mass density ([2]; 308.15 K, x1 = 0.9012): 1174.09 ± 1.5 kg/m3
mass density ([2]; 308.15 K, x1 = 1): 1184.72 ± 1.8 kg/m3
mass density ([2]; 313.15 K, x1 = 0.1): 894.51 ± 0.5 kg/m3
mass density ([2]; 313.15 K, x1 = 0.1997): 975.82 ± 0.33 kg/m3
mass density ([2]; 313.15 K, x1 = 0.3): 1031.1 ± 0.39 kg/m3
mass density ([2]; 313.15 K, x1 = 0.4005): 1070.84 ± 0.55 kg/m3
mass density ([2]; 313.15 K, x1 = 0.4995): 1100.65 ± 0.71 kg/m3
mass density ([2]; 313.15 K, x1 = 0.6015): 1123.64 ± 0.89 kg/m3
mass density ([2]; 313.15 K, x1 = 0.6998): 1141.82 ± 1.1 kg/m3
mass density ([2]; 313.15 K, x1 = 0.799): 1157 ± 1.3 kg/m3
mass density ([2]; 313.15 K, x1 = 0.9012): 1170.73 ± 1.5 kg/m3
mass density ([2]; 313.15 K, x1 = 1): 1181.43 ± 1.7 kg/m3
mass density ([2]; 323.15 K, x1 = 0.1): 885.05 ± 0.53 kg/m3
mass density ([2]; 323.15 K, x1 = 0.1997): 967.07 ± 0.35 kg/m3
mass density ([2]; 323.15 K, x1 = 0.3): 1022.86 ± 0.37 kg/m3
mass density ([2]; 323.15 K, x1 = 0.4005): 1062.98 ± 0.53 kg/m3
mass density ([2]; 323.15 K, x1 = 0.4995): 1093.19 ± 0.69 kg/m3
mass density ([2]; 323.15 K, x1 = 0.6015): 1116.23 ± 0.87 kg/m3
mass density ([2]; 323.15 K, x1 = 0.6998): 1134.55 ± 1.1 kg/m3
mass density ([2]; 323.15 K, x1 = 0.799): 1149.88 ± 1.2 kg/m3
mass density ([2]; 323.15 K, x1 = 0.9012): 1163.8 ± 1.5 kg/m3
mass density ([2]; 323.15 K, x1 = 1): 1174.49 ± 1.7 kg/m3
mass density ([2]; 333.15 K, x1 = 0.1): 874.91 ± 0.55 kg/m3
mass density ([2]; 333.15 K, x1 = 0.1997): 957.71 ± 0.37 kg/m3
mass density ([2]; 333.15 K, x1 = 0.3): 1013.98 ± 0.34 kg/m3
mass density ([2]; 333.15 K, x1 = 0.4005): 1054.45 ± 0.51 kg/m3
mass density ([2]; 333.15 K, x1 = 0.4995): 1084.93 ± 0.67 kg/m3
mass density ([2]; 333.15 K, x1 = 0.6015): 1108.14 ± 0.84 kg/m3
mass density ([2]; 333.15 K, x1 = 0.6998): 1126.63 ± 1 kg/m3
mass density ([2]; 333.15 K, x1 = 0.799): 1142.09 ± 1.2 kg/m3
mass density ([2]; 333.15 K, x1 = 0.9012): 1156.07 ± 1.4 kg/m3
mass density ([2]; 333.15 K, x1 = 1): 1166.89 ± 1.7 kg/m3
mass density ([2]; 343.15 K, x1 = 0.1): 866.42 ± 0.57 kg/m3
mass density ([2]; 343.15 K, x1 = 0.1997): 948.85 ± 0.39 kg/m3
mass density ([2]; 343.15 K, x1 = 0.3): 1005.39 ± 0.32 kg/m3
mass density ([2]; 343.15 K, x1 = 0.4005): 1046.32 ± 0.48 kg/m3
mass density ([2]; 343.15 K, x1 = 0.4995): 1077.27 ± 0.65 kg/m3
mass density ([2]; 343.15 K, x1 = 0.6015): 1100.67 ± 0.82 kg/m3
mass density ([2]; 343.15 K, x1 = 0.6998): 1119.31 ± 1 kg/m3
mass density ([2]; 343.15 K, x1 = 0.799): 1134.92 ± 1.2 kg/m3
mass density ([2]; 343.15 K, x1 = 0.9012): 1149.06 ± 1.4 kg/m3
mass density ([2]; 343.15 K, x1 = 1): 1159.97 ± 1.6 kg/m3

Source: the NIST ThermoML archive (doi:10.1021/je700266n)
